Results from patent US6180651A, “Diarylmethylidenefuran derivatives, processes for their preparation and their uses in therapeutics” (Bristol-Myers Squibb, priority 1996, dated 2001).

Experiments:
carrageenin oedema = test: anti-inflammatory activity, carrageenin oedema test; assay type: in vivo; details: rat, oral; dose which induces 50% decrease in the volume of the oedema; read-out: Anti-inflammatory activity ID50
Experimental: (§1) The anti-inflarnmatory activity of the compounds of the Examples was evaluated by the carrageenin oedema method and the analgesic activity was evaluated by the kaolin arthritis method.
Anti-inflammatory Activity:
The anti-inflammatory activity is evaluated in the rat by the carrageenin oedema test. The product is administered orally at a rate of 2.5 ml/100 g (n=6 animals per dose) 2 h 30 min after oral hyperhydration (2.5 m/100 g); one hour after administration of the product, the oedema is induced by the plantar subcutaneous injection of 2% aqueous carrageenin solution. The results are expressed as the ID50, the dose in mg/kg which induces 50% decrease in the volume of the oedema, calculated by linear regression using the maximum oedema volume obtained for each product tested.

COX-1 = target: T1, COX-1 (Ovis aries, UniProt P05979); test: inhibition of COX-1 enzymatic activity (PGE2 by EIA); assay type: biochemical; details: purified enzyme from ram seminal vesicles; arachidonic acid 6 μM; n=1 to 4 determinations
T1 construct: purified enzyme from ram seminal vesicles; from tissue; host or cells: ram seminal vesicles (purified enzyme)
T1 sequence (P05979 25-600): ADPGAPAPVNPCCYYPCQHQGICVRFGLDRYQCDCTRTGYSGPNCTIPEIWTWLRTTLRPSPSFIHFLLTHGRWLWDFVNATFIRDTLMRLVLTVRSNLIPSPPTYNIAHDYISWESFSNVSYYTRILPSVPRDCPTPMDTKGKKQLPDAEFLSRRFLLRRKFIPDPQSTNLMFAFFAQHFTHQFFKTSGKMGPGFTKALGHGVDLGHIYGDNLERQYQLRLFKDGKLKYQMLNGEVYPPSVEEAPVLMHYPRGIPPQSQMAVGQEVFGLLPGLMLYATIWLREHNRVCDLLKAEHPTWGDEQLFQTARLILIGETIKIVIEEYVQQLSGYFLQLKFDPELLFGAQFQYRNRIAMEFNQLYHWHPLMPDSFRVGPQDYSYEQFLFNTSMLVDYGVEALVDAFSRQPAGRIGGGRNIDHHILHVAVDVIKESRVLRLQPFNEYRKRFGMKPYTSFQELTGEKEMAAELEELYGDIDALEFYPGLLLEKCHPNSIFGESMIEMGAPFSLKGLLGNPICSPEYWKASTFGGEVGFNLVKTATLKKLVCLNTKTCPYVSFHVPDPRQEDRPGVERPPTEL
Experimental: (§2) Inhibition of the COX-1 and COX-2 Enzymatic Activities The test molecule is preincubated for 10 minutes at 25° C. with 2 U of COX-1 (purified enzyme from ram seminal vesicles) or 1 U of COX-2 (purified enzyme from ewe placenta). Arachidonic acid (6 μM for COX-1, 4 μM for COX-2) is added to the reaction medium and incubation is carried out for 5 minutes at 25° C. When incubation has ended, the enzymatic reaction is stopped by the addition of 1 N HCl and the PGE2 produced is determined by EIA. The results are expressed as IC50, the concentration in nM which corresponds to 50% inhibition of the maximal enzymatic activity on the COX-1 and COX-2 (n=1 to 4 determinations).

COX-2 = target: T2, COX-2 (Ovis aries, UniProt P79208); test: inhibition of COX-2 enzymatic activity (PGE2 by EIA); assay type: biochemical, ewe; details: for IC50: purified enzyme from ewe placenta, arachidonic acid 4 μM, n=1 to 4 determinations; for Selectivity COX-1/COX-2 ratio: ratio of IC50 COX-1 / IC50 COX-2
T2 construct: purified enzyme from ewe placenta; from tissue; host or cells: ewe placenta (purified enzyme)
T2 sequence (P79208 17-603): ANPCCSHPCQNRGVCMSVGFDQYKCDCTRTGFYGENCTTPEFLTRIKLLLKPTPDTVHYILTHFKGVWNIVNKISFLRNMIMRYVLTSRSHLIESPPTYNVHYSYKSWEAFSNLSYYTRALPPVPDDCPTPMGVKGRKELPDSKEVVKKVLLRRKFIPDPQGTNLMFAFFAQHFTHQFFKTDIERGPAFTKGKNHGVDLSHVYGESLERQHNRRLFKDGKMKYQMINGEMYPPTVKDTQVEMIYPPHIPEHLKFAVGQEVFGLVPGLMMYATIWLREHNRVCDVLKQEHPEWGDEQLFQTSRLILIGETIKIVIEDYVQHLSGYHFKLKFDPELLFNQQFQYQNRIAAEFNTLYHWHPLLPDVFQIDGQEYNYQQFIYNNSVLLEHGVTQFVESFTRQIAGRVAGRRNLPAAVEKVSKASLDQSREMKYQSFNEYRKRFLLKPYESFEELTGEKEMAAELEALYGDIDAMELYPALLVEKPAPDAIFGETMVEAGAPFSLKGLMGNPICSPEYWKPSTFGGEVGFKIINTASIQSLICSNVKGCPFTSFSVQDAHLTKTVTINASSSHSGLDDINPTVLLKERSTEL
Experimental: as §2

[1] = gastric tolerance, ulceration index; parameters: species or system Charles River rats of the CD strain; details: rat, in vivo, po
Experimental: The gastric tolerance is studied on Charles River rats of the CD strain weighing between 110 and 150 g. The animals are placed on a water diet 24 h prior to oral administration of the product or the vehicle only at a rate of 1 ml/100 g (n=6 animals per dose). Six hours after administration,the animals are sacrificed and the stomachs are removed and opened along the large curvature. The number of haemorrhagic puncta and sulci per stomach, identified macroscopically, makes it possible to establish an ulceration index (0: no lesion, 1: 1 to 2 lesions, 2: 3 to 4 lesions, 3: 5 to 8 lesions, 4: 9 to 16 lesions, 5: more than 17 lesions) and to estimate the 50% ulcerigenic dose (UD50 =dose inducing 4 to 5 lesions, expressed in mg/kg).

kaolin arthritis = test: analgesic activity, kaolin arthritis test; assay type: in vivo; details: rat, oral; dose which induces 50% decrease of the maximum quotation in the control batch; read-out: Analgesic activity DE50
Experimental: as §1
The analgesic activity is evaluated in the rat by the kaolin arthritis test. Thirty minutes after the intra-articular administration of 10% aqueous kaolin suspension, the product is administered orally at a rate of 1 ml/100 g (n=10 animals per dose). The results are expressed as DE50, the dose in mg/kg which induces 50% decrease of the maximum quotation in the control batch, calculated by linear regression.

apc/min mice = test: chemoprevention assay in apc/min mice (model of human familial adenomatous polyposis); assay type: in vivo; details: 1.8 mg/kg/day in the feed
Experimental: Chemoprevention Assays in Mice:
The test molecule is given in the feed to apc/min mice, a mouse model of human familial adenomatous polyposis, at 1.8 mg/kg/day for 240 days. The viability and the average tumor burden in animals receiving the test compound is compared to that in control animals.

With CS(=O)(=O)c1ccc(/C(=C2\CCOC2=O)c2ccc(F)cc2)cc1 [4 (E isomer), (E)-3-[1-(4-fluorophenyl)-1-(4-methanesulphonylphenyl)methylidene]dihydrofuran-2-one] the ED50 (carrageenin oedema) was 1.8 mg/kg, the IC50 (COX-1) was > 300 µM and the IC50 (COX-2) was 0.674 ± 0.046 µM. The “Selectivity COX-1/COX-2 ratio” value (COX-2) was > 445, the TD50 at 6 h [1] was > 1000 mg/kg and the ED50 (kaolin arthritis) was 7.6 mg/kg.
With CS(=O)(=O)c1ccc(/C(=C2\CCOC2=O)c2ccc(Cl)cc2)cc1 [8 (Z isomer), (Z)-3-[1-(4-chlorophenyl)-1-(4-methanesulphonylphenyl)methylidene]dihydrofuran-2-one] the mice still alive (apc/min mice; 240 days, control 8/29) was 17/29, the average tumor burden (apc/min mice; 240 days, control 16.3 tumors) was 11.9 tumors per mouse and the “viability compared to control” value (apc/min mice; after 240 days) was “outliving their control counterparts”. The ED50 (carrageenin oedema) was 3.7 mg/kg, the IC50 (COX-1) was 172 ± 22.2 µM and the IC50 (COX-2) was 0.182 ± 0.025 µM. For the same compound, the “Selectivity COX-1/COX-2 ratio” value (COX-2) was 944, the TD50 at 6 h [1] was > 1000 mg/kg and the ED50 (kaolin arthritis) was 2.1 mg/kg.
For NS(=O)(=O)c1ccc(/C(=C2\CCOC2=O)c2ccc(Cl)cc2)cc1 [125 (Z isomer), (Z)-4-[(4-chlorophenyl)-(2-oxo-dihydro-furan-3-ylidene)-methyl]benzenesulphonamide], the ED50 (carrageenin oedema) was 1.8 mg/kg, the IC50 (COX-1) was 2.52 ± 1.31 µM and the IC50 (COX-2) was 0.06 µM. The “Selectivity COX-1/COX-2 ratio” value (COX-2) was 42, the TD50 at 6 h [1] was > 1000 mg/kg and the ED50 (kaolin arthritis) was 8.5 mg/kg.
Work on Cc1cc(/C(=C2/CCOC2=O)c2ccc(S(N)(=O)=O)cc2)ccc1F [135 (Z isomer), (Z)-4-[(4-fluoro-3-methylphenyl)-(2-oxo-dihydrofuran-3-ylidene)methyl]benzenesulphonamide] yielded an ED50 (carrageenin oedema) of 3.3 mg/kg, an IC50 (COX-1) of 19.7 µM and an IC50 (COX-2) of 0.245 ± 0.076 µM. For the same compound, the “Selectivity COX-1/COX-2 ratio” value (COX-2) was 80 and the ED50 (kaolin arthritis) was 6.1 mg/kg.
Work on NS(=O)(=O)c1ccc(/C(=C2\CCOC2=O)c2ccc(F)c(Cl)c2)cc1 [143 (Z isomer), (Z)-4-[(3-chloro-4-fluorophenyl)-(2-oxo-dihydro-furan-3-ylidene)methyl]benzenesulphonamide] yielded an ED50 (carrageenin oedema) of 0.7 mg/kg, an IC50 (COX-1) of 12.7 µM and an IC50 (COX-2) of 0.073 µM. For the same compound, the “Selectivity COX-1/COX-2 ratio” value (COX-2) was 174 and the ED50 (kaolin arthritis) was 6.4 mg/kg.
